Measurements taken from patent US20210238192A1, “VASCULAR ADHESION PROTEIN-1 (VAP-1) MODULATORS AND THERAPEUTIC USES THEREOF” (Blade Therapeutics, Inc., priority 2018, published 2021).
Structures can show the parent of a compound that is named as a salt. Where two headings read alike, the source gives them in different places.

Key:
Format in all cases: biochemical
Human MAO-A = target: T1, Human MAO-A (Homo sapiens, UniProt P21397); experiment: MAO-A inhibition (Amplex Red continuous fluorescence assay)
T1 sequence (P21397 1-527): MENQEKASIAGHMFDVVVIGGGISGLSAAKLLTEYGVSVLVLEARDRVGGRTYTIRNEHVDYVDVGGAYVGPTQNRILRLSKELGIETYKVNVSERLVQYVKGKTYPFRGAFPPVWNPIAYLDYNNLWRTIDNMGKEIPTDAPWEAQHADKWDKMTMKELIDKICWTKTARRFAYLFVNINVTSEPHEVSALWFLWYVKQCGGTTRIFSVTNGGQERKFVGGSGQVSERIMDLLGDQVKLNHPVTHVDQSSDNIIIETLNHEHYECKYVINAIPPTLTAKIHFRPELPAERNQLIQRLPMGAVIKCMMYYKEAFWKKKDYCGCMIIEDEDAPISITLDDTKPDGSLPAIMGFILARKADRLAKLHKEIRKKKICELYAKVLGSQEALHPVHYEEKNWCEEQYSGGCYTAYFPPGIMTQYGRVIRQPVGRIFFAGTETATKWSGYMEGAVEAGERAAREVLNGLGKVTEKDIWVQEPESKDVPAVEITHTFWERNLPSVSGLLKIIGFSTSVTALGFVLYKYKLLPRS
Experimental: (§1) VAP-1, DAO, MAO-A, MAO-B, and HRP activity and inhibition thereof was assessed by means of a continuous fluorescence assay. The Amplex Red Hydrogen Peroxide/Peroxidase Assay (ThermoFisher) was optimized for detecting amine oxidase (AO) activity. In an enzyme-coupled reaction, the H2O2 generated by AO reacts 1:1 with Amplex Red reagent to produce fluorescent product resorufin.
(§2) Assays were typically setup in black 384-well plates using automated liquid handling as follows. VAP-1/MAO assay buffer contains […] sodium phosphate, pH 7.4; DAO assay buffer contains 50 mM HEPES, pH 7.5; HRP assay buffer contains 100 mM CHES, 1 mM MgCl2, 50 mM NaCl, 0.05% BSA, pH 9.0. Inhibitors were serially diluted in DMSO and used to setup 2× mixtures with AO in the aforementioned buffer. After 30 min pre-incubation at 37° C. (VAP-1, HRP) or room temp (DAO, MAO), the reaction was initiated by adding a 2× mix of Amplex Red, HRP (coupling enzyme), and substrate (benzylamine, histamine, tyramine, benzylamine, H2O2, for VAP-1, DAO, MAO-A, MAO-B, and HR, respectively) in the same buffer. Reaction progress curve data were typically collected for 5 min using excitation/emission wavelengths of 510 nm/565 nm on FLIPR-Tetra plate readers (Molecular Devices Inc). Reaction rates were calculated from progress curve slopes typically over 60-150 sec. Dose response curves (rate vs. log inhibitor concentration) were typically fit to a 4-parameter logistic function to extract IC50 values.

Human VAP-1 = target: T2, Human VAP-1 (Homo sapiens, UniProt Q16853); experiment: VAP-1 inhibition assay (Amplex Red continuous fluorescence assay)
T2 sequence (Q16853 1-763): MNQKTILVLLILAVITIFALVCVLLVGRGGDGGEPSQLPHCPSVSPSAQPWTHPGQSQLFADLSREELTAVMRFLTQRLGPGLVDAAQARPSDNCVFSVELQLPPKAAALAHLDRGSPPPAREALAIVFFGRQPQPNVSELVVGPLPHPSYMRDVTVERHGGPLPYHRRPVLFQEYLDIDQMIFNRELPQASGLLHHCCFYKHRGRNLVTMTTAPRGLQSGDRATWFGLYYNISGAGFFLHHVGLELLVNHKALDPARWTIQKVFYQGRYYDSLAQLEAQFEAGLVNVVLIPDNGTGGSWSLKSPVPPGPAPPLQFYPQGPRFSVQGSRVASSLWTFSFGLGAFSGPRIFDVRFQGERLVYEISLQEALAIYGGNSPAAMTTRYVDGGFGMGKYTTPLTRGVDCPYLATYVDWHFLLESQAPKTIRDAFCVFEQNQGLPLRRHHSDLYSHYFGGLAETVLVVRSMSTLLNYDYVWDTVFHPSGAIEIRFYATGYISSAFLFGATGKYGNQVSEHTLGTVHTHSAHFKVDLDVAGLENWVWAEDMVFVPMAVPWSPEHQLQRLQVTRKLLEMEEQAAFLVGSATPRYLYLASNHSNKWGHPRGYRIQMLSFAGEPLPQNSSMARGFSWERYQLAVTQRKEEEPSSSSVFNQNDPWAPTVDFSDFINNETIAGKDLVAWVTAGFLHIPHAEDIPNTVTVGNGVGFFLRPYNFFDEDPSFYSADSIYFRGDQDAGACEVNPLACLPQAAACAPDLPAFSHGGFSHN
Experimental: as §1, §2

Human MAO-B = target: T3, Human MAO-B (Homo sapiens, UniProt P27338); experiment: MAO-B inhibition (Amplex Red continuous fluorescence assay)
T3 sequence (P27338 1-520): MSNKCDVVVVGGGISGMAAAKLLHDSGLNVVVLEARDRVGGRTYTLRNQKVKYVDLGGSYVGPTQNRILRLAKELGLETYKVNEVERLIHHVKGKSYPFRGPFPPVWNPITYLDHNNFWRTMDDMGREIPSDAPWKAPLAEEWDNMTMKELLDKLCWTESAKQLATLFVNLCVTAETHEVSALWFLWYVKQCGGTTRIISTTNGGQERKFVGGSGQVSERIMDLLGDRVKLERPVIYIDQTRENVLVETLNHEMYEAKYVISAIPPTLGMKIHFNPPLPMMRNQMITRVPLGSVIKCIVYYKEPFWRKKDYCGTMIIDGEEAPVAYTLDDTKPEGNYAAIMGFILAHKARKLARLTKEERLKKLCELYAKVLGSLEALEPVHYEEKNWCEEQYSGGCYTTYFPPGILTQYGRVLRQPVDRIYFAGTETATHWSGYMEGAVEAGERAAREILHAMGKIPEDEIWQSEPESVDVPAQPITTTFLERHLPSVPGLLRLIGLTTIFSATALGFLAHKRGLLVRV
Experimental: as §1, §2

Human DAO = target: T4, Human DAO (Homo sapiens, UniProt P19801); experiment: DAO inhibition (Amplex Red continuous fluorescence assay)
T4 sequence (P19801 20-751): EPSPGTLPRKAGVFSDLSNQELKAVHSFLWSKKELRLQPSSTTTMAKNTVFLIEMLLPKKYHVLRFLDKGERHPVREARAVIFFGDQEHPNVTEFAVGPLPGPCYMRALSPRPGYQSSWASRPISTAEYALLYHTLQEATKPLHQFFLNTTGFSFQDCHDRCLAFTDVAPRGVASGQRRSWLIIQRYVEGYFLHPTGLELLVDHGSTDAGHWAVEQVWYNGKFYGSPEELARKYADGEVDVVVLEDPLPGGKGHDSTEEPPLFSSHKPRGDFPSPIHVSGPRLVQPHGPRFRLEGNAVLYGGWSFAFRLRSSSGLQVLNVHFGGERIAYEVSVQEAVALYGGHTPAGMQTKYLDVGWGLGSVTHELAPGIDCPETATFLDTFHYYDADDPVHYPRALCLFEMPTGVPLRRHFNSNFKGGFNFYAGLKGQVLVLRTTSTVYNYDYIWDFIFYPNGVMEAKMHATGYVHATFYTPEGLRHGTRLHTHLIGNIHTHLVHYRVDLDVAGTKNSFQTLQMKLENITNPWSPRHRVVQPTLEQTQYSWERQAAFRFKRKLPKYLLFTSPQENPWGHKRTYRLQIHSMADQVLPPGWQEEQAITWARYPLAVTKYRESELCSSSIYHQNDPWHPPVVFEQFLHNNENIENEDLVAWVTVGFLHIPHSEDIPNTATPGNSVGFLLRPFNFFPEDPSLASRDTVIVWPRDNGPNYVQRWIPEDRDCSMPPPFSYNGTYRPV
Experimental: as §1, §2

[1] = 30 min pre-incubation at room temp, substrate tyramine, read-out: Human MAO-A IC50
[2] = 30 min pre-incubation at 37° C., substrate benzylamine, read-out: Human VAP-1 IC50
[3] = 30 min pre-incubation at room temp, substrate benzylamine, read-out: Human MAO-B IC50
[4] = 30 min pre-incubation at room temp, substrate histamine, read-out: Human DAO IC50

| SMILES | IC50 (Human MAO-A; [1]) | IC50 (Human VAP-1; [2]) | IC50 (Human MAO-B; [3]) | IC50 (Human DAO; [4]) | IC50 (Human MAO-A) | IC50 (Human VAP-1) | IC50 (Human MAO-B) | IC50 (Human DAO) |
| --- | --- | --- | --- | --- | --- | --- | --- | --- |
| NC/C(=C\F)COc1ccc(-c2ncccn2)cc1 [Compound 37, (E)-3-fluoro-2-((4-(pyrimidin-2-yl)phenoxy)methyl)prop-2-en-1-amine hydrochloride] | 3 to 10 µM | < 3 µM | < 3 µM | < 3 µM |  |  |  |  |
| NC/C(=C/F)COc1ccc(-c2ncccn2)cc1 [Compound 38, (Z)-3-fluoro-2-((4-(pyrimidin-2-yl)phenoxy)methyl)prop-2-en-1-amine hydrochloride] | < 3 µM | < 3 µM | < 3 µM | < 3 µM |  |  |  |  |
| Cn1cnc(-c2ccc(OC/C(=C/F)CN)cc2)c1 [Compound 39, (E)-3-fluoro-2-((4-(1-methyl-1H-imidazol-4-yl)phenoxy)methyl)prop-2-en-1-amine] | > 10 µM | < 3 µM | < 3 µM | < 3 µM |  |  |  |  |
| NC/C(=C\F)COc1ccc(-c2cnc[nH]2)cc1 [Compound 40, (E)-2-((4-(1H-imidazol-5-yl)phenoxy)methyl)-3-fluoroprop-2-en-1-amine] | 3 to 10 µM | < 3 µM | < 3 µM | < 3 µM |  |  |  |  |
| NC/C(=C\F)COCc1cccs1 [Compound 41, (E)-3-fluoro-2-((thiophen-2-ylmethoxy)methyl)prop-2-en-1-amine] | < 3 µM | < 3 µM | < 3 µM | > 10 µM |  |  |  |  |
| NC/C(=C\F)COc1ccc(-c2ccn[nH]2)cc1 [Compound 42, (E)-2-((4-(1H-pyrazol-5-yl)phenoxy)methyl)-3-fluoroprop-2-en-1-amine hydrochloride] | < 3 µM | < 3 µM | < 3 µM | < 3 µM |  |  |  |  |
| NC/C(=C\F)COc1ccc(-c2ncon2)cc1 [Compound 43, (E)-2-((4-(1,2,4-oxadiazol-3-yl)phenoxy)methyl)-3-fluoroprop-2-en-1-amine hydrochloride] | 3 to 10 µM | < 3 µM | < 3 µM | < 3 µM |  |  |  |  |
| NC/C(=C/F)COc1ccc(-c2ncon2)cc1 [Compound 44, (Z)-2-((4-(1,2,4-OXADIAZOL-3-YL)PHENOXY)METHYL)-3-FLUOROPROP-2-EN-1-AMINE HYDROCHLORIDE] | < 3 µM | < 3 µM | < 3 µM | < 3 µM |  |  |  |  |
| CC(C)(C)NC(=O)c1ccc(NC/C(=C/F)CN)cc1 [Compound 45, (E)-4-((2-(aminomethyl)-3-fluoroalkyl)amino)-n-(tert-butyl)benzamide hydrochloride] | > 10 µM | < 3 µM | < 3 µM | > 10 µM |  |  |  |  |
| CC(C)(C)NC(=O)c1ccc(NC/C(=C\F)CN)cc1 [Compound 46, (Z)-4-((2-(aminomethyl)-3-fluoroalkyl)amino)-N-(tert-butyl)benzamide hydrochloride] | > 10 µM | < 3 µM | < 3 µM | 3 to 10 µM |  |  |  |  |
| NC/C(=C\F)CNC(=O)Oc1ccccc1 [Compound 47, phenyl (E)-(2-(aminomethyl)-3-fluoroalkyl)carbamate hydrochloride] |  |  |  |  | < 3 µM | < 3 µM | > 10 µM | > 10 µM |
| Cn1nccc1-c1ccc(OC/C(=C/F)CN)cc1 [Compound 48, (E)-3-fluoro-2-((4-(1-methyl-1H-pyrazol-5-yl)phenoxy)methyl)prop-2-en-1-amine hydrochloride] | > 10 µM | < 3 µM | < 3 µM | < 3 µM |  |  |  |  |
| Cn1nccc1-c1ccc(OC/C(=C\F)CN)cc1 [Compound 49, (Z)-3-fluoro-2-((4-(1-methyl-1H-pyrazol-5-yl)phenoxy)methyl)prop-2-en-1-amine hydrochloride] | < 3 µM | < 3 µM | < 3 µM | < 3 µM |  |  |  |  |
| Cn1ccc(-c2ccc(OC/C(=C/F)CN)cc2)n1 [Compound 50, (E)-3-fluoro-2-((4-(1-methyl-1H-pyrazol-3-yl)phenoxy)methyl)prop-2-en-1-amine hydrochloride] | 3 to 10 µM | < 3 µM | < 3 µM | < 3 µM |  |  |  |  |
| NC/C(=C\F)COc1ccc(-c2nnn[nH]2)cc1 [Compound 51, (E)-2-((4-(1H-tetrazol-5-yl)phenoxy)methyl)-3-fluoroprop-2-en-1-amine hydrochloride] | > 10 µM | < 3 µM | > 10 µM | 3 to 10 µM |  |  |  |  |
| NC/C(=C/F)COc1ccc(-c2nnn[nH]2)cc1 [Compound 52, (Z)-2-((4-(1H-tetrazol-5-yl)phenoxy)methyl)-3-fluoroprop-2-en-1-amine hydrochloride] | > 10 µM | < 3 µM | > 10 µM | < 3 µM |  |  |  |  |
